Results on eleven molecules are retold here after patent publication US6472415B1, “Androgen receptor suppressors in the therapy and diagnosis of prostate cancer, alopecia and other hyper-androgenic syndromes” (priority 1998, dated 2002).

Data set [1] in a line: Systemic toxicity, repeated i.p. injection in mice. It is filed as in vivo. As for the experimental part: Systemic toxicity was orientationally evaluated by i.p. injection every 2nd day in mice. […] For BP-34, the corresponding values were 150 mg/kg bw and 300 mg/kg bw.
The maximum tolerated dose should thus be approximately 300 mg/kg. For BP-34, i.p. injections of 100-300 mg/kg produce no mortalities in mice. […] Therefore, the maximum tolerated dose of BP-34 should be approximately 250 mg/kg.

The subject of data set [2] is human prostate cancer cells LNCaP. Put plainly: XXT cell viability assay, 72 hours. It is filed as cell-based. The method, then:
After 72 hours, an XXT assay (Scudievo, et al., Cancer Research, 48:4827 (1988)) indicating cell viability was carried out.

For the next data set, the target named is T1, androgen receptor (Homo sapiens, UniProt P10275, T878A).
T1 construct: endogenous in cells; host or cells: LNCaP human prostate cancer cells
Put plainly: Androgen receptor remaining in LNCaP cell lysate, Western Blot. The conditions noted are these: for Percent Androgen Receptor Remaining / Percent of the androgen receptor remaining / Effect on the AR: LNCaP; for Percent Androgen Receptor Remaining: Table 7 controls, incubation time not given; for Percent of the androgen receptor remaining: 48 hours; for Effect on the AR: Western Blot; for Suppression of the AR: 3 μM concentration; for Elimination of the AR: 10 μM concentration. It is filed as cell-based. As for the experimental part: The interaction of the compounds with AR was studied by incubation with LNCaP cells, subsequent cell lysis and the standard Western Blot assay.
(In general: In western blotting, separated proteins are transferred to a membrane and probed.)

Data set [3] is described as follows: Tissue distribution 4 hours after intravenous injection in male rats. The following applies: 300 g male rats, after 4 hours.
For data set [4] the following is noted: 38° C., 0.5 mg/mL. As for the experimental part: Compounds were tested for stability in human serum at 38° C. They were dissolved in isopropanol/H2O (95:5), mixed with human serum to a concentration of 0.5 mg/mL, and incubated at 38° C. Serum aliquots were extracted with ethyl acetate and analyzed by HPLC.
(Permadi, H.; Lundgren, B.; Andersson, K.; Sundberg, C.; DePierre, J. W. Effects of perfluoro fatty acids on peroxisome proliferation and mitochondrial size in mouse liver: dose and time factors and effect of chain length. Xenobiotica, 91993) Vol. 23, No. 7, pp.761-70).

The conditions of data set [5]: isopropanol/H2O (95:5), 50° C., up to six days.
The test system of data set [6] is prostate and seminal vesicles. Description: Weight of prostate and seminal vesicles (secondary sex organs) in rats. It is filed as in vivo. The conditions noted are these: castrated rats supplemented with testosterone propionate.
Method: (The dose of 0.1 mg/kg approximates the expected topical daily dose for humans).
The conditions of data set [7]: Cockshott et al. 1990; cited from earlier work.

Entries after “also recorded” stand apart in the source; their conditions may differ. Like-named read-outs stand apart in the source and are kept apart here.

T1 sequence (P10275 whole entry T878A): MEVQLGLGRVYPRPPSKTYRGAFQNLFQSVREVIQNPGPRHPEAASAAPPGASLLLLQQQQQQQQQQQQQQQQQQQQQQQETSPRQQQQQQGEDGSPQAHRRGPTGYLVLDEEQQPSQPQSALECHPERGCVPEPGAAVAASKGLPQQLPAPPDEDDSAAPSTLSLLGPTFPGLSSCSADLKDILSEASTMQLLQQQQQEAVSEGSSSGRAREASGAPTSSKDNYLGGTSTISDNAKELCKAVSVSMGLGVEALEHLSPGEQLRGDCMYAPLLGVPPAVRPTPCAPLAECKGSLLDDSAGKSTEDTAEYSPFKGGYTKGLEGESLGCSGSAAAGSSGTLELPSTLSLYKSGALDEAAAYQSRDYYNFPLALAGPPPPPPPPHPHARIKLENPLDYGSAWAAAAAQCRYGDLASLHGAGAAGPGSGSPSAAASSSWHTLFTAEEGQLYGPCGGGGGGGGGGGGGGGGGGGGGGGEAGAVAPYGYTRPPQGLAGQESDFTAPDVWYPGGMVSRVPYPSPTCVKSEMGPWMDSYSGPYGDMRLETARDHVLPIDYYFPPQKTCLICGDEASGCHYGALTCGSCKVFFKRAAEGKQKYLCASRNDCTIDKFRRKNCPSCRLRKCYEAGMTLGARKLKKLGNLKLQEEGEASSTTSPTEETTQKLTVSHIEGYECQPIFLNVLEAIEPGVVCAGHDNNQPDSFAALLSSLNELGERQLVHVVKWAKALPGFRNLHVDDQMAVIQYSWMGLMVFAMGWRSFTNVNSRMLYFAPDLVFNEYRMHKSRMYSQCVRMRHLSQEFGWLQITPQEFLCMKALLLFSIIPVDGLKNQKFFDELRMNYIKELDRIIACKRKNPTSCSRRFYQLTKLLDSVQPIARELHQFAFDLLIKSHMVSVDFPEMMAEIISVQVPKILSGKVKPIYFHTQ

In the case of `CC(O)(CNCC(C)(O)C(=O)Nc1ccc(Cl)cc1)C(=O)Nc1ccc(Cl)cc1` (centres unmarked), the melting point (commonly the temperature of the solid-liquid transition) was 76 to 78 °C.

For the molecule `CC(O)(CN)C(=O)Nc1ccc([N+](=O)[O-])c(C(F)(F)F)c1` (centres unmarked) [BP-34, 4-nitro-3-trifluoromethyl-N-(2-hydroxy-2-methyl-3-aminopropionyl)aniline], the “Dose with morbidity, but not mortality” value in data set [1] (i.p.) is reported as 300 mg/kg. In addition, the “i.p. doses producing no mortalities” value in data set [1] (i.p.) lay within 100 to 300 mg/kg. For the same molecule, the “Dose with morbidity but no mortality” value in data set [1] (i.p. every 2nd day) was 300 mg/kg bw. The “Dose given without mortality or morbidity” value in data set [1] (i.p. every 2nd day, 5 times) worked out at 150 mg/kg bw. In addition, the MTD in [1] (mouse, in vivo, ip, read-out: Maximum tolerated dose) was around 250 mg/kg. In addition, in data set [2], the “Effect on the LNCaP cells” value was “no effect”. In addition, the “Percent Androgen Receptor Remaining” value on androgen receptor (3μ Molar conc) is listed as 97%; at androgen receptor (10μ Molar conc) it was 98%. The “Percent of the androgen receptor remaining” value turned out to be 97% at androgen receptor (3μ Molar conc.) and 98% on androgen receptor (10μ Molar conc.). In addition, the “Effect on the AR” value at androgen receptor was “no effect”.

For the molecule `CC(O)(CSCC=C([125I])[125I])C(=O)Nc1ccc(C#N)c(C(F)(F)F)c1` (centres unmarked) [BP-554], the “Accumulation in the prostate vis-a-vis other tissues” value in data set [3] is on record as “substantial accumulation in the prostate”.

With `CC(O)(COC/C=C/[125I])C(=O)Nc1ccc(C#N)c(C(F)(F)F)c1` (centres unmarked) [BP-636], the “Accumulation in the prostate vis-a-vis other tissues” value in data set [3] is on record as “substantial accumulation in the prostate”.

With `CC(O)(CNC(=S)Nc1ccc(Br)cc1)C(=O)Nc1ccc([N+](=O)[O-])c(C(F)(F)F)c1` (centres unmarked) [BP-668, 3-((((4-bromophenyl)amino)thioxomethyl)amino)-2-hydroxy-2-methyl-N-(4-nitro-3-(trifluoromethyl)phenyl)propanamide], the melting point was 192 to 195 °C. Also, in data set [4] (24 h), the “Percent of the intact compound remaining in human serum” value is recorded as 100%. Further, the “Percent of the intact compound remaining in human serum” value in data set [4] (48 h) is listed as 100%. In data set [4] (6 d), the “Percent of the intact compound remaining in human serum” value came out at 100%. The “Change via HPLC in accelerated stability study” value in data set [5] is recorded as “no change was observed”. For the same molecule, in data set [6] (0.1 mg/kg), the “Reduction of secondary sex organs' weight” value is reported as “did not reduce”. In addition, on androgen receptor, the “Suppression of the AR” value was “important suppression” and the “Elimination of the AR” value is “practically eliminated the AR”. The “Percent of the androgen receptor remaining” value on androgen receptor (3μ Molar conc.) is 73%. For the same molecule, the “Percent of the androgen receptor remaining” value at androgen receptor (10μ Molar conc.) is recorded as 0%.

Regarding `CC(O)(CNCC(C)(O)C(=O)Nc1ccc([N+](=O)[O-])c(C(F)(F)F)c1)C(=O)Nc1ccc([N+](=O)[O-])c(C(F)(F)F)c1` (centres unmarked) [BP-673, 2-hydroxy-3-((2-hydroxy-2-(N-(4-nitro-3-(trifluoromethyl)phenyl)carbamoyl)propyl)amino)-2-methyl-N-(4-nitro-3-(trifluoromethyl)phenyl)propionamide], the “Percent of the intact compound remaining in human serum” value in [4] (24 h), in data set [4] (48 h) and in data set [4] (6 d) was 100% in each case. The “Change via HPLC in accelerated stability study” value in data set [5] is recorded as “no change was observed”. The “Suppression of the AR” value at androgen receptor is reported as “important suppression”. Moreover, the “Elimination of the AR” value on androgen receptor is on record as “practically eliminated the AR”. In addition, the “Percent of the androgen receptor remaining” value on androgen receptor (3μ Molar conc.) came to 74%; on androgen receptor (10μ Molar conc.), 3%.

Turning to `CC(O)(CNCCOCCOCCNCC(C)(O)C(=O)Nc1ccc([N+](=O)[O-])c(C(F)(F)F)c1)C(=O)Nc1ccc([N+](=O)[O-])c(C(F)(F)F)c1` (centres unmarked) [BP-676], the “Percent of the androgen receptor remaining” value worked out at 64% at androgen receptor (3μ Molar conc.) and 20% on androgen receptor (10μ Molar conc.).

Regarding `CCCNC(=S)Nc1ccc(C#N)c(C(F)(F)F)c1` [BP-735, N-(3-trifluoromethyl-4-cyanophenyl), N′-propyl thiourea], at androgen receptor, the “Suppression of the AR” value is listed as “important suppression” and the “Elimination of the AR” value is listed as “practically eliminated the AR”. For the same molecule, the “Percent of the androgen receptor remaining” value on androgen receptor (3μ Molar conc.) stood at 45%. The “Percent of the androgen receptor remaining” value on androgen receptor (10μ Molar conc.) stood at 1%.

On to `CC(O)(CNC(=O)Nc1ccc(I)cc1)C(=O)Nc1ccc([N+](=O)[O-])c(C(F)(F)F)c1` (centres unmarked) [BP-754], for which the “Percent of the androgen receptor remaining” value came out at 28% on androgen receptor (3μ Molar conc.) and 14% at androgen receptor (10μ Molar conc.).

Take `CC(O)(CS(=O)(=O)c1ccc(F)cc1)C(=O)Nc1ccc(C#N)c(C(F)(F)F)c1` (centres unmarked) [Bicalutamide, reference compound]: the “Peak serum levels as % of the dose, reported” value in data set [7] is 0.03%. Besides, the “Reduction of secondary sex organs' weight” value in data set [6] (0.5 mg/kg) is “about 20%”.

In the case of `CC(C)(O)C(=O)Nc1ccc([N+](=O)[O-])c(C(F)(F)F)c1` [Hydroxyflutamide, reference compound], the “Percent Androgen Receptor Remaining” value on androgen receptor (3μ Molar conc) was determined as 98%; on androgen receptor (10μ Molar conc), 94%. Further, the “Percent of the androgen receptor remaining” value at androgen receptor (3μ Molar conc.) is 98%; on androgen receptor (10μ Molar conc.), 94%. Also, the “Effect on the AR” value on androgen receptor was “have not shown any significant effect on the AR; also recorded: have not shown any significant suppression of the AR”.
